# Data published in US6339042B1, “Herbicidal N-cyclohexadienyl heteroaryloxyacetamides” (American Cyanamid Co., priority 1999, dated 2002).
# Legend:
# Conditions in all cases: three weeks after treatment
# [1] = test system: Amaranthus tuberculatus; experiment: Pre-emergence herbicidal evaluation, AMATA; format: in vivo
# From the text: (§1) The treated pots are then placed on greenhouse benches, watered and cared for in accordance with conventional greenhouse procedures.
# [2] = test system: Galium aparine; experiment: Pre-emergence herbicidal evaluation, GALAP; format: in vivo
# From the text: as §1
# [3] = test system: Alopecurus myosuroides; experiment: Pre-emergence herbicidal evaluation, ALOMY; format: in vivo
# From the text: as §1
# [4] = test system: Apera spica venti; experiment: Pre-emergence herbicidal evaluation, APESV; format: in vivo
# From the text: as §1
# [5] = test system: Echinochloa crus-galli; experiment: Pre-emergence herbicidal evaluation, ECHCG; format: in vivo
# From the text: as §1
# [6] = test system: Setaria viridis; experiment: Pre-emergence herbicidal evaluation, SETVI; format: in vivo
# From the text: as §1
# [7] = test system: Lolium perenne; experiment: Pre-emergence herbicidal evaluation, LOLPE; format: in vivo
# From the text: as §1
# [8] = test system: Triticum aestivum; experiment: Pre-emergence herbicidal evaluation, TRZAW; format: in vivo
# From the text: as §1
# [9] = test system: Hordeum vulgare; experiment: Pre-emergence herbicidal evaluation, HORVW; format: in vivo
# From the text: as §1
# [10] = test system: Zea mays; experiment: Pre-emergence herbicidal evaluation, ZEAMX; format: in vivo
# From the text: as §1
# [11] = test system: Glycine max; experiment: Pre-emergence herbicidal evaluation, GLXMA; format: in vivo
# From the text: as §1
# [12] = test system: Oryza sativum; experiment: Pre-emergence herbicidal evaluation, ORYSA; format: in vivo
# From the text: as §1
# [13] = test system: Amaranthus tuberculatus; experiment: Post-emergence herbicidal evaluation, AMATA; format: in vivo
# [14] = test system: Galium aparine; experiment: Post-emergence herbicidal evaluation, GALAP
# [15] = test system: Alopecurus myosuroides; experiment: Post-emergence herbicidal evaluation, ALOMY
# [16] = test system: Apera spica venti; experiment: Post-emergence herbicidal evaluation, APESV
# [17] = test system: Echinochloa crus-galli; experiment: Post-emergence herbicidal evaluation, ECHCG
# [18] = test system: Setaria viridis; experiment: Post-emergence herbicidal evaluation, SETVI
# [19] = test system: Lolium perenne; experiment: Post-emergence herbicidal evaluation, LOLPE
# [20] = test system: Triticum aestivum; experiment: Post-emergence herbicidal evaluation, TRZAW
# Description: Each pot is examined three weeks after treatment and phytotoxicity is assessed according to the rating system set forth below.
# These acetone solutions are diluted with water and the resulting formulations applied at dosage levels equivalent of about 0.4 to 0.1 kg per hectare of test compound per pot. After spraying the plants are placed on greenhouse benches and are cared for in the usual manner, commensurate with conventional greenhouse practices.
# [21] = test system: Hordeum vulgare; experiment: Post-emergence herbicidal evaluation, HORVW
# [22] = test system: Zea mays; experiment: Post-emergence herbicidal evaluation, ZEAMX
# [23] = test system: Glycine max; experiment: Post-emergence herbicidal evaluation, GLXMA
# [24] = test system: Oryza sativum; experiment: Post-emergence herbicidal evaluation, ORYSA
structure (smiles),measurement,setting,value
CC1=CC(N(C(=O)COc2nnc(C(F)(F)F)s2)C(C)C)=CC(C)(C)C1 [Example 4],phytotoxicity rating AMATA,[1]; 0.100 kg/ha,6 (6 - Herbicidal effect)
same,phytotoxicity rating AMATA,[1]; 0.200 kg/ha,6 (6 - Herbicidal effect)
same,phytotoxicity rating AMATA,[1]; 0.400 kg/ha,8 (8 - Approaching complete kill)
same,phytotoxicity rating AMATA,[1]; 0.800 kg/ha,8 (8 - Approaching complete kill)
same,phytotoxicity rating GALAP,[2]; 0.100 kg/ha,0 (0 - No effect)
same,phytotoxicity rating GALAP,[2]; 0.200 kg/ha,0 (0 - No effect)
same,phytotoxicity rating GALAP,[2]; 0.400 kg/ha,2 (2 - Slight effect)
same,phytotoxicity rating GALAP,[2]; 0.800 kg/ha,3 (3 - Moderate effect)
same,phytotoxicity rating ALOMY,[3]; 0.100 kg/ha,7 (7 - Good herbicidal effect)
same,phytotoxicity rating ALOMY,[3]; 0.200 kg/ha,7 (7 - Good herbicidal effect)
same,phytotoxicity rating ALOMY,[3]; 0.400 kg/ha,7 (7 - Good herbicidal effect)
same,phytotoxicity rating ALOMY,[3]; 0.800 kg/ha,9 (9 - Complete kill)
same,phytotoxicity rating APESV,[4]; 0.100 kg/ha,9 (9 - Complete kill)
same,phytotoxicity rating APESV,[4]; 0.200 kg/ha,9 (9 - Complete kill)
same,phytotoxicity rating APESV,[4]; 0.400 kg/ha,9 (9 - Complete kill)
same,phytotoxicity rating APESV,[4]; 0.800 kg/ha,9 (9 - Complete kill)
same,phytotoxicity rating ECHCG,[5]; 0.100 kg/ha,6 (6 - Herbicidal effect)
same,phytotoxicity rating ECHCG,[5]; 0.200 kg/ha,9 (9 - Complete kill)
same,phytotoxicity rating ECHCG,[5]; 0.400 kg/ha,9 (9 - Complete kill)
same,phytotoxicity rating ECHCG,[5]; 0.800 kg/ha,9 (9 - Complete kill)
same,phytotoxicity rating SETVI,[6]; 0.100 kg/ha,6 (6 - Herbicidal effect)
same,phytotoxicity rating SETVI,[6]; 0.200 kg/ha,6 (6 - Herbicidal effect)
same,phytotoxicity rating SETVI,[6]; 0.400 kg/ha,6 (6 - Herbicidal effect)
same,phytotoxicity rating SETVI,[6]; 0.800 kg/ha,9 (9 - Complete kill)
same,phytotoxicity rating LOLPE,[7]; 0.100 kg/ha,8 (8 - Approaching complete kill)
same,phytotoxicity rating LOLPE,[7]; 0.200 kg/ha,9 (9 - Complete kill)
same,phytotoxicity rating LOLPE,[7]; 0.400 kg/ha,9 (9 - Complete kill)
same,phytotoxicity rating LOLPE,[7]; 0.800 kg/ha,9 (9 - Complete kill)
same,phytotoxicity rating TRZAW,[8]; 0.100 kg/ha,0 (0 - No effect)
same,phytotoxicity rating TRZAW,[8]; 0.200 kg/ha,0 (0 - No effect)
same,phytotoxicity rating TRZAW,[8]; 0.400 kg/ha,1 (1 - Trace effect)
same,phytotoxicity rating TRZAW,[8]; 0.800 kg/ha,4 (4 - Injury)
same,phytotoxicity rating HORVW,[9]; 0.100 kg/ha,0 (0 - No effect)
same,phytotoxicity rating HORVW,[9]; 0.200 kg/ha,0 (0 - No effect)
same,phytotoxicity rating HORVW,[9]; 0.400 kg/ha,1 (1 - Trace effect)
same,phytotoxicity rating HORVW,[9]; 0.800 kg/ha,4 (4 - Injury)
same,phytotoxicity rating ZEAMX,[10]; 0.100 kg/ha,0 (0 - No effect)
same,phytotoxicity rating ZEAMX,[10]; 0.200 kg/ha,1 (1 - Trace effect)
same,phytotoxicity rating ZEAMX,[10]; 0.400 kg/ha,1 (1 - Trace effect)
same,phytotoxicity rating ZEAMX,[10]; 0.800 kg/ha,4 (4 - Injury)
same,phytotoxicity rating GLXMA,[11]; 0.100 kg/ha,0 (0 - No effect)
same,phytotoxicity rating GLXMA,[11]; 0.200 kg/ha,0 (0 - No effect)
same,phytotoxicity rating GLXMA,[11]; 0.400 kg/ha,0 (0 - No effect)
same,phytotoxicity rating GLXMA,[11]; 0.800 kg/ha,1 (1 - Trace effect)
same,phytotoxicity rating ORYSA,[12]; 0.100 kg/ha,3 (3 - Moderate effect)
same,phytotoxicity rating ORYSA,[12]; 0.200 kg/ha,4 (4 - Injury)
same,phytotoxicity rating ORYSA,[12]; 0.400 kg/ha,5 (5 - Definite injury)
same,phytotoxicity rating ORYSA,[12]; 0.800 kg/ha,5 (5 - Definite injury)
same,phytotoxicity rating AMATA,[13]; 0.100 kg/ha,1 (1 - Trace effect)
same,phytotoxicity rating AMATA,[13]; 0.200 kg/ha,1 (1 - Trace effect)
same,phytotoxicity rating AMATA,[13]; 0.400 kg/ha,4 (4 - Injury)
same,phytotoxicity rating GALAP,[14]; 0.100 kg/ha,0 (0 - No effect)
same,phytotoxicity rating GALAP,[14]; 0.200 kg/ha,0 (0 - No effect)
same,phytotoxicity rating GALAP,[14]; 0.400 kg/ha,2 (2 - Slight effect)
same,phytotoxicity rating ALOMY,[15]; 0.100 kg/ha,4 (4 - Injury)
same,phytotoxicity rating ALOMY,[15]; 0.200 kg/ha,8 (8 - Approaching complete kill)
same,phytotoxicity rating ALOMY,[15]; 0.400 kg/ha,8 (8 - Approaching complete kill)
same,phytotoxicity rating APESV,[16]; 0.100 kg/ha,2 (2 - Slight effect)
same,phytotoxicity rating APESV,[16]; 0.200 kg/ha,8 (8 - Approaching complete kill)
same,phytotoxicity rating APESV,[16]; 0.400 kg/ha,8 (8 - Approaching complete kill)
same,phytotoxicity rating ECHCG,[17]; 0.100 kg/ha,3 (3 - Moderate effect)
same,phytotoxicity rating ECHCG,[17]; 0.200 kg/ha,6 (6 - Herbicidal effect)
same,phytotoxicity rating ECHCG,[17]; 0.400 kg/ha,6 (6 - Herbicidal effect)
same,phytotoxicity rating SETVI,[18]; 0.100 kg/ha,3 (3 - Moderate effect)
same,phytotoxicity rating SETVI,[18]; 0.200 kg/ha,5 (5 - Definite injury)
same,phytotoxicity rating SETVI,[18]; 0.400 kg/ha,5 (5 - Definite injury)
same,phytotoxicity rating LOLPE,[19]; 0.100 kg/ha,5 (5 - Definite injury)
same,phytotoxicity rating LOLPE,[19]; 0.200 kg/ha,7 (7 - Good herbicidal effect)
same,phytotoxicity rating LOLPE,[19]; 0.400 kg/ha,8 (8 - Approaching complete kill)
same,phytotoxicity rating TRZAW,[20]; 0.100 kg/ha,0 (0 - No effect)
same,phytotoxicity rating TRZAW,[20]; 0.200 kg/ha,1 (1 - Trace effect)
same,phytotoxicity rating TRZAW,[20]; 0.400 kg/ha,3 (3 - Moderate effect)
same,phytotoxicity rating HORVW,[21]; 0.100 kg/ha,0 (0 - No effect)
same,phytotoxicity rating HORVW,[21]; 0.200 kg/ha,1 (1 - Trace effect)
same,phytotoxicity rating HORVW,[21]; 0.400 kg/ha,2 (2 - Slight effect)
same,phytotoxicity rating ZEAMX,[22]; 0.100 kg/ha,0 (0 - No effect)
same,phytotoxicity rating ZEAMX,[22]; 0.200 kg/ha,0 (0 - No effect)
same,phytotoxicity rating ZEAMX,[22]; 0.400 kg/ha,0 (0 - No effect)
same,phytotoxicity rating GLXMA,[23]; 0.100 kg/ha,2 (2 - Slight effect)
same,phytotoxicity rating GLXMA,[23]; 0.200 kg/ha,4 (4 - Injury)
same,phytotoxicity rating GLXMA,[23]; 0.400 kg/ha,6 (6 - Herbicidal effect)
same,phytotoxicity rating ORYSA,[24]; 0.100 kg/ha,0 (0 - No effect)
same,phytotoxicity rating ORYSA,[24]; 0.200 kg/ha,1 (1 - Trace effect)
same,phytotoxicity rating ORYSA,[24]; 0.400 kg/ha,1 (1 - Trace effect)
